Tested on: locally advanced or metastatic non-small cell lung cancer (NSCLC)
Experiment: OAK phase III clinical trial (NCT02008227): atezolizumab vs docetaxel, outcomes by bTMB score and PD-L1 IHC
Assay type: in vivo, human
Method: A blood-based assay was used to evaluate the association between clinical response to treatment with atezolizumab (MPDL3280A) and blood tumor mutational burden (bTMB) score in patients with non-small cell lung cancer (NSCLC) enrolled in two clinical trials, a phase II clinical trial, POPLAR (Clinical Trial ID No.: NCT01903993), and a phase III clinical trial, OAK (Clinical Trial ID No.: NCT02008227), in which atezolizumab was administered as a monotherapy.
Pre-treatment blood samples from patients with NSCLC who were enrolled in the POPLAR and/or the OAK studies, in which atezolizumab was administered as a monotherapy, were evaluated for bTMB score and/or maximum somatic allele frequency (MSAF).
The OAK (Clinical Trial ID No.: NCT02008227) patient population evaluated for bTMB score consisted of 583 patients. Patients were eligible for enrollment in the OAK study if they had locally advanced or metastatic (e.g., stage IIIB, stage IV, or recurrent) NSCLC; disease progression during or following treatment with a prior platinum-containing regimen for locally advanced, unresectable/inoperable, or metastatic NSCLC, or disease recurrence within 6 months of treatment with a platinum-based adjuvant/neoadjuvant regimen; measurable disease, as defined by RECIST v1.1; and an ECOG performance status of 0 or 1. Participants were randomized to receive either atezolizumab at a dose of 1200 mg intravenously every three weeks or docetaxel 75 mg per square meter (mg/m^2) intravenously every three weeks. Treatment with atezolizumab could be continued as long as participants were experiencing clinical benefit, i.e., in the absence of unacceptable toxicity or symptomatic deterioration attributed to disease progression.
Analysis of bTMB was performed retrospectively. Progression-free survival (PFS) was defined as the time between date of randomization and date of first documented disease progression as assessed by the investigator using RECIST v.1.1 or death from any cause, whichever occurred first. Overall survival (OS) was defined as the time between the date of randomization until death due to any cause. Treatment arms were compared for OS and PFS individually using a univariate Cox regression model without stratification in the biomarker evaluable-population (BEP) and their subgroups or using a stratified (by randomization stratification factors) Cox model in the ITT population. No multiplicity correction was applied to p-values or confidence intervals (CI). Kaplan-Meier methodology was used to estimate median OS and PFS and construct survival curves.
In the OAK ITT population (N=850), 797 samples were available for analysis. Of these samples, 13 were removed for sample contamination >1%; 42 were removed for median exon coverage <800×; and 100 were removed for low MSAF<1%.
The OAK BEP (N=642) included 59 patients with EGFR mutation or ALK rearrangement, and 583 without known alterations.
To identify somatic mutations and calculate a bTMB score, whole blood samples obtained from each patient (collected in EDTA or Streck tubes) were processed through a series of spins to isolate plasma, from which cell free DNA (cfDNA) was extracted for sequencing analysis. Specifically, at least 20 ng purified cfDNA was used for library construction. Next-generation sequencing libraries using fragment barcodes and hybrid capture were constructed to analyze and sequence a pre-determined set of 394 genes that covered approximately 1.125 Mb of the exome. Specifically, purified libraries were hybrid captured using a 394-gene bait set and then further purified, pooled and loaded on an ILLUMINA® HISEQ® 4000 sequencing system. Sequenced libraries were aligned and sorted. In order to accurately call variants at low allele frequencies and minimize artifacts from sequencing, PCR, or DNA damage-related errors, sequenced libraries were processed by a cfDNA computational pipeline that corrected errors via the use of fragment barcodes. […]

[1] = OAK BEP with valid bTMB and PD-L1 IHC results, bTMB ≥16, n=156
[2] = OAK, bTMB score subgroup ≥10 (251 patients), atezolizumab vs docetaxel
[3] = OAK, bTMB score subgroup ≥16 (158 patients), atezolizumab vs docetaxel
[4] = OAK, bTMB score subgroup ≥20 (105 patients), atezolizumab vs docetaxel

## atezolizumab
OAK BEP with valid bTMB and PD-L1 IHC results, TC3 or IC3, n=103
  OS HR (95% CI): 0.44 (0.27-0.71)
[1]
  OS HR (95% CI): 0.64 (0.44-0.93)
  PFS HR (95% CI): 0.64 (0.46, 0.91)
OAK, BEP (n = 583), atezolizumab vs docetaxel
  OS HR (95% CI): 0.64
OAK, IHC− (complementary to TC1/2/3) and bTMB ≥16, n=93
  PFS HR (95% CI): 0.78
OAK, IHC− (complementary to TC1/2/3 or IC1/2/3) and bTMB ≥16, n=53
  PFS HR (95% CI): 0.68
OAK, IHC− (complementary to TC2/3) and bTMB ≥16, n=110
  PFS HR (95% CI): 0.69
OAK, IHC− (complementary to TC2/3 or IC2/3) and bTMB ≥16, n=94
  PFS HR (95% CI): 0.65
OAK, IHC− (complementary to TC3 or IC3) and bTMB ≥16, n=126
  PFS HR (95% CI): 0.70
OAK, ITT (n = 850), atezolizumab vs docetaxel
  OS HR (95% CI): 0.73
OAK, PD-L1 IHC TC0 and IC0 (bTMB evaluable), n=250
  PFS HR (95% CI): 0.95
OAK, PD-L1 IHC TC1/2/3, IHC+ (bTMB evaluable), n=192
  PFS HR (95% CI): 0.65
OAK, PD-L1 IHC TC1/2/3 or IC1/2/3, IHC+ (bTMB evaluable), n=328
  PFS HR (95% CI): 0.83
OAK, PD-L1 IHC TC2/3, IHC+ (bTMB evaluable), n=150
  PFS HR (95% CI): 0.65
OAK, PD-L1 IHC TC2/3 or IC2/3, IHC+ (bTMB evaluable), n=200
  PFS HR (95% CI): 0.71
OAK, TC0 and IC0 and bTMB <16, n=197
  PFS HR (95% CI): 1.03
OAK, TC0 and IC0 and bTMB ≥16, n=53
  PFS HR (95% CI): 0.68
OAK, TC1/2/3 and bTMB <16, n=129
  PFS HR (95% CI): 0.72
OAK, TC1/2/3 and bTMB ≥16, n=63
  PFS HR (95% CI): 0.55
OAK, TC1/2/3 or IC1/2/3 and bTMB <16, n=225
  PFS HR (95% CI): 0.94
OAK, TC1/2/3 or IC1/2/3 and bTMB ≥16, n=103
  PFS HR (95% CI): 0.65
OAK, TC2/3 and bTMB <16, n=106
  PFS HR (95% CI): 0.70
OAK, TC2/3 and bTMB ≥16, n=44
  PFS HR (95% CI): 0.55
OAK, TC2/3 or IC2/3 and bTMB <16, n=140
  PFS HR (95% CI): 0.73
OAK, TC2/3 or IC2/3 and bTMB ≥16, n=60
  PFS HR (95% CI): 0.65
OAK, TC3 or IC3 and bTMB <16, n=73
  PFS HR (95% CI): 0.71
[2]
  OS HR: 0.69
  PFS HR: 0.73
[3]
  OS HR: 0.64
  PFS HR: 0.65
[4]
  OS HR: 0.65
  PFS HR: 0.61
OAK, bTMB≥16, per treatment arm
  median OS: 13.5 months
OAK, bTMB≥16 patients, per treatment arm
  best overall response rate: 21%
OAK, reference bTMB score of 14 (Dx+, n=188), atezolizumab vs docetaxel
  PFS HR: 0.68
OAK, reference bTMB score of 18 (Dx+, n=132), atezolizumab vs docetaxel
  PFS HR: 0.66

From patent US11674962B2, “Therapeutic and diagnostic methods for cancer” (Genentech, Inc., priority 2017, dated 2023)
